Experimental data from a melting point compilation (Tetko et al.; mined from patent text by program, amines drawn as free bases though some values may be those of a salt).

| Compound | melting point [°C] |
| --- | --- |
| COc1cc(N)c(Cl)cc1C(=O)NC1CCN(CC2CCN(C(=O)C3CCOCC3)CC2)CC1 | 235 to 237 |
| COC(=O)c1cccn1Cc1ccccc1[N+](=O)[O-] | 105 to 107 |
| CC(=O)N[C@@H](CS)C(=O)NCCSC(=O)c1ccccc1 | 128 to 130 |
| CCn1cc(CC(=O)O)c(OCCCc2cn(-c3ccc(C(F)(F)F)cn3)nc2C(C)C)n1 | 99 to 100 |
| CN(C)c1nc2sc3c(NCc4cccnc4)ncnc3c2c2c1CCC(C)(C)C2 | 208 to 209 |
| CCOC(=O)c1ccc(Cn2cnc3cnccc32)cc1 | 156 to 157 |
| CCN(CC)CCNC(=O)COc1cccc(-n2nc(-c3ccc(F)cc3)c3cccnc32)c1 | 137 to 138 |
| COc1ccc(NN)cc1F | 46 to 50 |
| O=C(Nc1cccc(C(=O)Nc2nnn[nH]2)c1)NC1N=C(c2ccccc2F)c2ccccc2N(CC(=O)N2CC3CCC(CC3)C2)C1=O (racemic) | 193 to 196 |
| CC(=NO)c1ncnc(OC(C)C)c1C | 95.4 to 96.5 |
| O=C(O)Cc1cc2c(s1)-c1ccccc1CC2 | 103 to 105 |
| COc1ccc(-c2nc(NC(C)=O)sc2-c2cccnc2)cc1 | 208 to 210 |
| CCOc1ccc(C(=O)CCC(=O)Nc2cc(OCCC(C)C)cc(-c3ccccc3)n2)cc1OCC | 122 to 123 |
| Cc1noc(NS(=O)(=O)c2ccc([N+](=O)[O-])cc2)c1Br | 146 to 149 |
| COc1ccc2c(c1)CC(C)(CN1CCN(c3ccccc3)CC1)NC2=O (stereo not drawn) | 93 to 95 |
| CO[C@]1(c2cccc(OCc3ccc4c(ccc(=O)n4C)c3)c2)CCOC[C@H]1O (racemic) | 62 to 66 |
| COc1cc(N)c(Cl)cc1C(=O)NCC1CCN(CCCCCC(=O)c2c(C)oc3ccccc23)CC1 | 133 to 135 |
| O=C(CCCCNCCOc1cccc2cccnc12)NC1CCCCC1 | 113 to 119 |
| COc1cc(N2CCC(N3CCN(C)CC3)CC2)ccc1N | 94 to 99 |
| Nc1ccc(OC2(c3ccccc3)CCN(Cc3ccccc3)CC2)cc1 | 124 to 126 |
| Oc1ccc2c(c1)OCC(c1cccc(C(F)(F)F)c1)C2c1ccc(OCCN2CCCC2)cc1 (stereo not drawn) | 87 to 89 |
| COc1ccccc1N(CN1CCOC1=O)C(=O)CCl | 109 to 110 |
| CN(C)c1nc2sc3c(NCc4cccnc4)ncnc3c2c2c1CCC2(C)C | 237 to 238 |
| C=C(Cc1ccc(C=Cc2ccc(CC(=C)C(=O)OCC)cc2)cc1)C(=O)O | 123 to 125 |
| CCn1c2cc(C=O)ccc2c2ccc3ccccc3c21 | 138 to 139 |

| Compound | melting point [°C] |
| --- | --- |
| Cc1ccc(CNC(=O)c2ccnc(NC(=O)c3ccccc3)c2)cc1 | 135 to 138 |
| COCCOCOc1ccc(C(=O)c2nc3ccc(OCOCCOC)cc3s2)cc1 | 46 |
| Cc1cc(C(=O)O)ncc1C(c1c(F)ccc(F)c1F)S(=O)(=O)CCC(F)(F)F (stereo not drawn) | 85 to 87 |
| O=C(N[C@H](Cc1cccc(OC(F)(F)C(F)F)c1)[C@@H](O)c1ccc(CO)cc1)c1cccc2c1C=CCCC2 (racemic) | 151 to 152 |
| COc1nccc(C(F)(F)F)c1S(=O)(=O)Nc1nc2c(OC)cnc(OC)n2n1 | 214 to 216 |
| Fc1ccc2c(CCCC3CNCc4c3[nH]c3cnc5cc(Cl)ccc5c43)noc2c1 (stereo not drawn) | 221 to 222 |
| CCCCc1nc2c(N)nc3ccccc3c2n1CCCCCCCCNS(C)(=O)=O | 121 to 124 |
| CC(C)(C)C(NC(=O)c1ccc(Cl)cc1)NC(=NC#N)Nc1c(F)cccc1F (stereo not drawn) | 211 to 213 |
| Cc1cc(-c2ccc(C(F)(F)F)cc2)nc(Oc2cccc(C(F)(F)F)c2)n1 | 124 to 127 |
| CCCCCCCCCCCCCCC(=O)C(=O)N[C@@H](CCCC)C(=O)NCC(=O)OC(C)(C)C | 38 to 39 |
| Cc1csc(N2N=C(c3ccc([N+](=O)[O-])cc3)c3cc4c(cc3CC2C)OCO4)n1 (stereo not drawn) | 188 to 189 |
| Nc1cc(C(F)(F)F)cnc1N | 97 to 99 |
| O=C(O)CCc1cnoc1-c1ccc(C(F)(F)F)cc1 | 171 to 172 |
| O=c1[nH]c(=O)n2c3c(cccc13)CC2 | 314 to 315 |
| C[Si](C)(C)C1([Si](C)(C)C)c2ccccc2-c2ccccc21 | 110 to 112 |
| Cc1cc2c(c3occ(-c4ccc(C(C)C)cc4)c13)CCCC2 | 97 to 98 |
| CC(=O)ON(C(N)=O)C(C)c1cc2ccccc2s1 (stereo not drawn) | 138 |
| C[C@@H](CSC(=O)c1ccccc1)C(=O)N1C(=O)N(C)C[C@H]1C(=O)O | 162 |
| CC(C)[C@H](NC(=O)N(C)Cc1ccccn1)C(=O)N[C@@H](Cc1ccccc1)C[C@H](O)[C@H](Cc1ccccc1)NC(=O)[C@@H](NC(=O)N(C)Cc1ccccn1)C(C)C | 92 to 96 |
| CCOC(=O)Nc1ccc2c(c1)CCSCC2=O | 145 to 146 |
| C=CCOC(=O)c1ccc(NC(=O)C(C(N)=O)c2ccc3c(c2)C(C)(C)CCC3(C)C)cc1 (stereo not drawn) | 210 to 211 |
| CC(=O)Nc1cc(C)cc(Br)n1 | 190 |
| Cc1cccc(C=CC(=O)C=Cc2cccc(C)c2)c1 | 68 to 72 |
| COc1ccc2oc(C(=O)c3cccnc3N3CCOCC3)cc2c1 | 85 to 88 |
| O=C(Cc1c[nH]c2ccccc12)NC1N=C(c2ccccc2)c2ccccc2NC1=O (racemic) | 264 to 265 |

| Compound | melting point [°C] |
| --- | --- |
| C=CCN(C(C)=O)c1cccc(-c2ccc3nncn3n2)c1 | 139 to 142 |
| CCCCN(Cc1ccc(-c2ccccc2-c2nnn[nH]2)cc1)c1ncccc1CNC(C)=O | 108 to 110 |
| O=C(O)c1cc([N+](=O)[O-])ccc1Nc1ccc(CCc2ccc(Cl)c(Cl)c2)cc1 | 214 to 217 |
| O=C(c1ccc(F)c(F)c1)N1CCCC(c2noc(-c3ncc[nH]3)n2)C1 (stereo not drawn) | 148 to 149 |
| CC(C)C[C@H](NC(=O)CCC(=O)c1ccccc1)C(=O)N[C@@H](C(C)C)[C@@H](O)c1c(-c2ccccc2)c1=O | 83 to 88 |
| Cc1cc2cc(CN(C)C)cnc2cc1NC(=O)c1ccc(-c2ccc(F)cc2)cc1 | 183 to 186 |
| O=C(NCCCC[C@H](O)C(=O)O)OCc1ccccc1 | 79 to 81 |
| CCCCCCCCCCCC(C(=O)NN)C(C(=O)Nc1c(OC)cc(OC)cc1OC)c1ccccc1 (stereo not drawn) | 175 to 180 |
| OC(c1ccccc1)(c1ccccc1)c1ccccc1Cl | 87 |
| CCCNC(=O)c1ccc(C=O)cc1 | 71 to 74 |
| CS(=O)(=O)c1ccc2c(c1)[nH]c(=S)n2NC(=O)c1ccc(Cl)c(S(N)(=O)=O)c1 | 298 to 300 |
| CC(C)(C)OC(=O)NC[C@H]1CN(c2ccc3c(c2)CCCc2cnoc2-3)C(=O)O1 | 180 to 184 |
| CC(=O)N1CCC(c2nc(N)nc3ccccc23)CC1 | 184 to 186 |
| Cc1ccc(-c2ccc(S(C)(=O)=O)cc2)n1-c1ccc(-c2cccs2)cc1 | 185 to 186 |
| CCCCN(CCCC(=O)O)C(=O)c1ccccc1 | 62 to 64 |
| CC(C)(C)OC(=O)N1CCCC[C@H]1C(OC(=O)Nc1ccc2[nH]ncc2c1)c1cccc(C(=O)O)c1 (stereo partly drawn) | 178 |
| O=Cc1ccccc1Oc1ccc(I)cc1 | 84.5 to 86 |
| CCCC(=O)c1cc(C(=O)O)c(N)cc1C | 184 to 186 |
| Cc1c(C(=O)O)nnn1Cc1c(F)cccc1F | 166 to 167 |
| C[C@@H](O)CNC(=O)N1CC(c2ccc(F)cc2)C1 | 104 to 105 |
| Cc1cc(Cl)c2c(ccc3nc(C)[nH]c32)n1 | 314 to 330 |
| Cc1cc(N2CCCCCC2)c2ccc(NCc3ccc(C(F)(F)F)cc3)cc2n1 | 90 to 93 |
| CC(=O)Oc1c(C)c(CCC2CC(O)CC(=O)O2)c2c(c1C)CC(C)(C)O2 (stereo not drawn) | 126 to 128 |
| COc1ccc(OC)c2c1C[C@](O)(CC#N)CC2=O | 160 to 162 |
| O=Cc1cc([N+](=O)[O-])cc(O)c1O | 226 to 228 |

| Compound | melting point [°C] |
| --- | --- |
| COc1cc2c(cc1OC)C(N1CCN(c3ccc4c(c3)CCC(=O)N4)CC1)=NCC2 | 70 to 75 |
| Cn1cc(C(=O)Nc2ccccc2OC(F)(F)C(F)F)c(C(F)F)n1 | 117 to 119 |
| Nc1nc2cc(Cl)c(Cl)cc2[nH]1 | 260 to 262 |
| CCc1nc(C)cn1-c1cc2c(cc1C(F)(F)F)[nH]c(=O)c1nnc(CP(=O)(O)O)n12 | > 300 |
| COc1ccc(-c2cc(=O)n(Cc3ccc(Cl)cc3Cl)nc2-c2ccc(OC)c(OC)c2)cc1 | 119 to 120 |
| CCC(NC(=S)NCc1ccc(C(C)(C)C)cc1)c1ccc(NS(C)(=O)=O)c(F)c1 (stereo not drawn) | 85 |
| COc1cc(CN2CCN(c3ccccc3C)CC2)cc(OC)c1OC | 89 |
| CCCCOc1ccc2nc(C(C)=O)c(O)cc2c1 | 71 to 73 |
| CSC(=S)Nc1ccc(OCc2nc3ccccc3s2)cc1C | 133 to 135 |
| O=C(Nc1c(F)cc(F)cc1F)N(Cc1cc2ccccc2c2ccccc12)C1CCCCC1 | 122 to 124 |
| Nc1ccc(N2CCN(Cc3ccccc3)CC2)cc1 | 137 to 138 |
| CN(c1ccnc(C(N)=O)c1)c1ccccc1C(=O)Nc1cc2ccccc2cn1 | 200 |
| O=c1c2cccc(Cl)c2nc2n1CCCO2 | 207 to 208 |
| O=C1CC(C(=O)O)C2(CCCCC2)C1 (stereo not drawn) | 146 to 147 |
| COc1cc2c(cc1OC)-c1c(OC)c(OC)cc3c1C(C2)N(C)CC3 (stereo not drawn) | 112 to 114 |
| c1ccc2c(c1)CCC1(CCOCC1)NC2 | 76 to 78 |
| CCn1ncc2c(NCC3CCCC(O)C3)c3cc([N+](=O)[O-])ccc3nc21 (stereo not drawn) | 236 to 238 |
| O=C(O)CCC(=O)c1cc(Cl)ccc1O | 172 to 173 |
| O=S(=O)(CC1(O)CN2CCC1CC2)c1ccc(-c2ccccc2)cc1 (stereo not drawn) | 203 to 205 |
| CC(C)(C)c1cc(CBr)ccc1O[Si](C)(C)C(C)(C)C | 54 to 55 |
| O=C(C(Cl)Cl)N1CCOC1C(Cl)Cl (stereo not drawn) | 80 |
| COc1ccc(NC(=O)Nc2nc3nc(NCCCN4CCN(C)CC4)ncc3cc2-c2c(Cl)cccc2Cl)cc1 | 93.5 to 100 |
| COc1cc2c(cc1Nc1ncc(Cl)c(Nc3cc(C#N)ccc3OC)n1)CCN(CC(N)=O)CC2 | 100 to 125 |
